Reference: the supplement of paper PMC12463676, “Small-molecule dissolution of stress granules by redox modulation benefits ALS models” (Nature Chemical Biology, 2025)

Assays:
lipoamide = compound: NC(=O)CCCCC1CCSS1 [lipoamide]; test: thermal stability z-score vs DMSO; higher = more thermally stabilized by treatment; conditions: HeLa, lipoamide concentration 100 µM
Procedure: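 Cellular thermal proteome profiling in HeLa cells. Cells were treated with 100 µM lipoamide for 1 h, with or without 1 mM arsenate for a further 1 h, then heated to ten temperatures (37-66.3 °C), and soluble protein was quantified by TMT mass spectrometry relative to 0.1% DMSO controls. The thermal stability score (sum of log2 fold changes minus the abundance score) was transformed to a z-score; mean of n = 3 experiments.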

potassium arsenate = compound: O=[As]([O-])(O)O.[K+] [potassium arsenate]; test: as above; conditions: HeLa; arsenate concentration 1 mM
Procedure: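 Cellular thermal proteome profiling in HeLa cells treated with 1 mM arsenate for 1 h (DMSO pretreatment), heated to ten temperatures (37-66.3 °C). Soluble protein was quantified by TMT mass spectrometry relative to DMSO controls; the thermal stability score was transformed to a z-score; mean of n = 3 experiments.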

[1] = arsenate co-treatment: 1 mM arsenate 1 h
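Note: each temperature applied for 3 min, abundance score taken as mean log2 fold change at the two lowest temperatures, z-score obtained by mean subtraction and division by SD.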

Chain of UniProt Q6PGP7 (Q6PGP7 whole entry): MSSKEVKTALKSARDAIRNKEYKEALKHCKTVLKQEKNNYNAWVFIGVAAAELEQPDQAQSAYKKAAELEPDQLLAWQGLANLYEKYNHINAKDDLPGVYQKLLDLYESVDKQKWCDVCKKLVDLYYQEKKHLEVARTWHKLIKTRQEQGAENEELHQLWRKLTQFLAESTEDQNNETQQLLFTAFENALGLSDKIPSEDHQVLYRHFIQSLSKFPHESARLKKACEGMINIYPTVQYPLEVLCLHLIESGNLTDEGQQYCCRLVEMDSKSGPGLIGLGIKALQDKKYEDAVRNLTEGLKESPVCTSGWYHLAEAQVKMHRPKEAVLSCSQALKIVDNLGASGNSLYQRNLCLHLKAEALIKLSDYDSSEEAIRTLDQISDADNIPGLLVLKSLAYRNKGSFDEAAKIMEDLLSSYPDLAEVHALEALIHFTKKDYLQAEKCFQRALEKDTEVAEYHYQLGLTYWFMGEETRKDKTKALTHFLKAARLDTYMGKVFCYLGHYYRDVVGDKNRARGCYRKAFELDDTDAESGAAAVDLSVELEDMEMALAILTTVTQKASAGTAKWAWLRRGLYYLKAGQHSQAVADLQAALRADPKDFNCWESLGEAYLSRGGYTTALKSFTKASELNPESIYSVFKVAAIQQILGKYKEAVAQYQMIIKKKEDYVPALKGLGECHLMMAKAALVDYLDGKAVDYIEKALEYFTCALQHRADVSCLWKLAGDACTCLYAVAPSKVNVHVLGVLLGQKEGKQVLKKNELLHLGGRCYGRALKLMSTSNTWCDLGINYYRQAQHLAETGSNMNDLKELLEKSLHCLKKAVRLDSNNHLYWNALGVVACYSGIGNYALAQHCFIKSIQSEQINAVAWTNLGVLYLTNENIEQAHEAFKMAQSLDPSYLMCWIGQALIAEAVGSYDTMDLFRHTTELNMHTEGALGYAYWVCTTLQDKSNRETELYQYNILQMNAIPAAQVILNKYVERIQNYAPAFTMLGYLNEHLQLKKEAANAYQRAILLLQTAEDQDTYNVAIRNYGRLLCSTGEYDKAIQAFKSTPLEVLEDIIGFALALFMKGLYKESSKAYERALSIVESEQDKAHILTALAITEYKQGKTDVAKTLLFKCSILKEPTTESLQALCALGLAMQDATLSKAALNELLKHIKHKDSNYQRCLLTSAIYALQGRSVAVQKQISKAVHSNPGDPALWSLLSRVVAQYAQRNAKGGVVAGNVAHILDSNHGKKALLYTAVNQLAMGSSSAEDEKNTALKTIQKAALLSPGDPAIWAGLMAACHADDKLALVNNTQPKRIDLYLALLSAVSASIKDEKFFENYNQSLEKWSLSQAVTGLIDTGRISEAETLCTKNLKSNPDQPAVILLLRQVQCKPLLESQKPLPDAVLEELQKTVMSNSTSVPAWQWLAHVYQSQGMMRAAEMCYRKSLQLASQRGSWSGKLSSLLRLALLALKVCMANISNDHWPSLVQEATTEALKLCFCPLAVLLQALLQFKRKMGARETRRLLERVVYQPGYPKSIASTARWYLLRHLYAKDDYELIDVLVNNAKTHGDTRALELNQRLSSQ
Chain of UniProt Q53HC9 (Q53HC9 whole entry): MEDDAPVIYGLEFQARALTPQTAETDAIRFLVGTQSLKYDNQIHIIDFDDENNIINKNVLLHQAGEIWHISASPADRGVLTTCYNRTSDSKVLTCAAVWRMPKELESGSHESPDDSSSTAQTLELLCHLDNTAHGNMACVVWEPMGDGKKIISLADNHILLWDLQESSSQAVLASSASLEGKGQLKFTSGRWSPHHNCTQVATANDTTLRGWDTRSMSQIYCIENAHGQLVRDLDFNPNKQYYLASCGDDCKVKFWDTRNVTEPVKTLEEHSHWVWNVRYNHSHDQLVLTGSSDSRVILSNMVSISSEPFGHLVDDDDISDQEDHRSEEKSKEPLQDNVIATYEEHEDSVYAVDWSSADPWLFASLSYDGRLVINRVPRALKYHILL
Chain of UniProt Q5T7W7 (Q5T7W7 whole entry): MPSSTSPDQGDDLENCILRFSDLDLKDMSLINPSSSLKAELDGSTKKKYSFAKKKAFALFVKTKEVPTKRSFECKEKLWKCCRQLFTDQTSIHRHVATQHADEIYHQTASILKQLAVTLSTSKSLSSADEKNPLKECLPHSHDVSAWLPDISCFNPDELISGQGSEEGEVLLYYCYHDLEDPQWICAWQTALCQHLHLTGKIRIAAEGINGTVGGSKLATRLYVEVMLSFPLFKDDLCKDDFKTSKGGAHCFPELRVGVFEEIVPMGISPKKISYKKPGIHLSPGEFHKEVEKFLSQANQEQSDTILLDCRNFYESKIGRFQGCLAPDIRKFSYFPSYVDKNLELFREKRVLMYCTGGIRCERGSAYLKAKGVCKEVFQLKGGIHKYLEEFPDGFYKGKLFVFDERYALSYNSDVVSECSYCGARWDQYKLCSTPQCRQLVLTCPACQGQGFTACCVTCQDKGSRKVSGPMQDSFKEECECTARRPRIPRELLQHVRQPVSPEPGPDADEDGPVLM
Chain of UniProt Q15643 (Q15643 whole entry): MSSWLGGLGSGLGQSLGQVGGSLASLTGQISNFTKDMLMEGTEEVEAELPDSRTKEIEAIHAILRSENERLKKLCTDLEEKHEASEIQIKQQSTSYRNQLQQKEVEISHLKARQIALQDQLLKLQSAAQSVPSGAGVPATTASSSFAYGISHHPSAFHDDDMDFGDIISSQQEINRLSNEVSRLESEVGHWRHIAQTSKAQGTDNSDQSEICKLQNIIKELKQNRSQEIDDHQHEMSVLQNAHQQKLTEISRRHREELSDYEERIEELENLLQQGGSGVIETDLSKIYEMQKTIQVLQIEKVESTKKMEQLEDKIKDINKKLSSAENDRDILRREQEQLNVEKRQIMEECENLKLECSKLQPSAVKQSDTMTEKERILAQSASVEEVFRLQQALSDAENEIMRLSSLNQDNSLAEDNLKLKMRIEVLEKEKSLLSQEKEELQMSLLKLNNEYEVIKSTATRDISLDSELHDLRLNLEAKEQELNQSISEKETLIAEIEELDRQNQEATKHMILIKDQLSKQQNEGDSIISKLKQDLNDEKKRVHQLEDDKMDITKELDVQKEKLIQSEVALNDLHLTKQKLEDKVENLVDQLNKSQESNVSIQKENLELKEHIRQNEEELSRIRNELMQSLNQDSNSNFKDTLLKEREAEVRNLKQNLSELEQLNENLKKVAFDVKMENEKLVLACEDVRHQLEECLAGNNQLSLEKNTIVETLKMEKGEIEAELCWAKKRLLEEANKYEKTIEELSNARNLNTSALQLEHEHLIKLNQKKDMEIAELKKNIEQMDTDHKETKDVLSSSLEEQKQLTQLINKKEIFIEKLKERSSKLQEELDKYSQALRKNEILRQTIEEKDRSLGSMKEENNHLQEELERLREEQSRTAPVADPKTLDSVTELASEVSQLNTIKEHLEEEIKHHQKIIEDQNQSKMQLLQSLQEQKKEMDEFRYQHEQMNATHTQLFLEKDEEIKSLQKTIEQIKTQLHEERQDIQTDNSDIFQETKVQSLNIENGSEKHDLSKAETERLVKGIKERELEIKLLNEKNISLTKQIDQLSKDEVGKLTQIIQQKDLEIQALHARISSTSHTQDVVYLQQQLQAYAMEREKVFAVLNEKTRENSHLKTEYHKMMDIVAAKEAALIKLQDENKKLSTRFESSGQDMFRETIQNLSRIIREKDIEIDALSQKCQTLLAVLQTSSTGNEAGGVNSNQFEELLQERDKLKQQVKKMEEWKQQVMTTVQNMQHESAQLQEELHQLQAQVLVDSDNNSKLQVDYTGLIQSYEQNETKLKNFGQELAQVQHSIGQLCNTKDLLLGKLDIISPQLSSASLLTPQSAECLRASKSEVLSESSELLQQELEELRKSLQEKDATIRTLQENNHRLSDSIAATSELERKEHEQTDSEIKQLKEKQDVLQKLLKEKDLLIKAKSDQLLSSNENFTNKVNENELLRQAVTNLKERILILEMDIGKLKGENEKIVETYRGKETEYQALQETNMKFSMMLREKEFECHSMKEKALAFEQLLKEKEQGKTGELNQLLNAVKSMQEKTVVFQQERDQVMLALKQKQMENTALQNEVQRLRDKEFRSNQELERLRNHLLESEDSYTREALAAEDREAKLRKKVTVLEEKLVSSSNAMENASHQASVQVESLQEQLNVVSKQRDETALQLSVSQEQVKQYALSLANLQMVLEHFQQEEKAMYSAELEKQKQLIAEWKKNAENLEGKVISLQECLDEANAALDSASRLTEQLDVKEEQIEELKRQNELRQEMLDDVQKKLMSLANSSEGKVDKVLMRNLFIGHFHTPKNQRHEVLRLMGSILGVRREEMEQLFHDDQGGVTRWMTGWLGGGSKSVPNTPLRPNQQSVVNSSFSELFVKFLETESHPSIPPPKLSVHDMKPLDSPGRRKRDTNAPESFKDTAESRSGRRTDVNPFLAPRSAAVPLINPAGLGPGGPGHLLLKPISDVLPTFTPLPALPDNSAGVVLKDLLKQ
Chain of UniProt Q6DKK2 (Q6DKK2 whole entry): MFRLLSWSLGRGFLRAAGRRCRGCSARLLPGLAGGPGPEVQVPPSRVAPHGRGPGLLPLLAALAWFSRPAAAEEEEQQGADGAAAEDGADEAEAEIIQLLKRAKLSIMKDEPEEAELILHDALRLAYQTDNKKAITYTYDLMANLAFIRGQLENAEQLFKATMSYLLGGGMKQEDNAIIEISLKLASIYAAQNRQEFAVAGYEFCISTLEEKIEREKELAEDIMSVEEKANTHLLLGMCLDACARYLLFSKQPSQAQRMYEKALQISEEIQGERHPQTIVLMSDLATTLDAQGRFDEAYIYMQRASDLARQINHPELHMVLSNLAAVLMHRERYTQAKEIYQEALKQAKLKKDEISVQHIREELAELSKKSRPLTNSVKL
Chain of UniProt Q8WW01 (Q8WW01 whole entry): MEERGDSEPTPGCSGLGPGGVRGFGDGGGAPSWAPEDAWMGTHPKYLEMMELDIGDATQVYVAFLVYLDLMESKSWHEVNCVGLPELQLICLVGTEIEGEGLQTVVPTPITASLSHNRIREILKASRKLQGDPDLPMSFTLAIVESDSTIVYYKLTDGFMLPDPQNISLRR

Target	thermal stability z-score (lipoamide; [1])	thermal stability z-score (lipoamide; arsenate co-treatment: none)	thermal stability z-score (potassium arsenate)
TRIM65 (UniProt Q6PJ69)	-0.203	-0.225	-0.189
TRIO (UniProt O75962)	-0.939	-0.335	0.0185
TRIOBP (UniProt Q9H2D6)	-0.339	-0.147	0.379
TRIP4 (UniProt Q15650)	0.243	0.422	-0.932
TRIP6 (UniProt Q15654)	-1.35	-0.966	-5.81
TRIP10 (UniProt Q15642)	0.15	0.0699	-0.0864
TRIP11 (UniProt Q15643)	-2.35	-0.484	0.782
TRIP12 (UniProt Q14669)	-0.227	-0.162	0.157
TRIP13 (UniProt Q15645)	-0.215	-0.735	-0.184
TRIT1 (UniProt Q9H3H1)	-0.0696	-0.0898	0.0151
TRMT1 (UniProt Q9NXH9)	0.222	-0.116	-0.423
TRMT1L (UniProt Q7Z2T5)	0.385	0.0926	-1.26
TRMT2A (UniProt Q8IZ69)	-0.235	-0.172	-0.216
TRMT5 (UniProt Q32P41)	-0.124	0.0028	-0.112
TRMT6 (UniProt Q9UJA5)	0.481	0.683	0.0561
TRMT10A (UniProt Q8TBZ6)	-0.927	-0.427	0.266
TRMT10C (UniProt Q7L0Y3)	-0.602	-0.191	0.226
TRMT11 (UniProt Q7Z4G4)	0.259	-0.151	-0.518
TRMT13 (UniProt Q9NUP7)	-0.376	-1.34	0.263
TRMT61A (UniProt Q96FX7)	1.14	-1.08	-0.0703
TRMT61B (UniProt Q9BVS5)	-1.22	-0.842	-0.271
TRMT112 (UniProt Q9UI30)	0.215	-0.0845	-0.0169
TRMU (UniProt O75648)	-0.59	-0.509	-0.558
TRNT1 (UniProt Q96Q11)	0.00685	-0.189	-0.174

Target	thermal stability z-score (lipoamide; [1])	thermal stability z-score (lipoamide; arsenate co-treatment: none)	thermal stability z-score (potassium arsenate)
TROVE2 (UniProt P10155)	-0.23	-0.235	-0.238
TRRAP (UniProt Q9Y4A5)	0.918	0.759	-1.16
TRUB1 (UniProt Q8WWH5)	-0.102	0.175	0.231
TRUB2 (UniProt O95900)	0.00158	0.0663	-0.133
TSC1 (UniProt Q92574)	0.103	-0.0297	-0.0936
TSC2 (UniProt P49815)	0.021	-0.0212	0.0977
TSC22D1 (UniProt Q15714)	0.404	0.657	0.629
TSC22D2 (UniProt O75157)	1.54	0.0633	1.16
TSC22D4 (UniProt Q9Y3Q8)	-1.89	-0.035	-0.0991
TSEN2 (UniProt Q8NCE0)	0.337	0.418	-0.00537
TSEN15 (UniProt Q8WW01)	-0.438	-0.0314	0.473
TSEN34 (UniProt Q9BSV6)	-1.1	0.117	-0.292
TSEN54 (UniProt Q7Z6J9)	-0.815	0.162	0.795
TSFM (UniProt P43897)	-0.91	-0.179	-0.0696
TSG101 (UniProt Q99816)	0.29	0.0321	-0.0661
TSN (UniProt Q15631)	1.41	1.61	-0.161
TSNAX (UniProt Q99598)	-0.075	-0.0638	-0.215
TSPAN4 (UniProt O14817)	-0.0469	0.15	0.304
TSPAN6 (UniProt O43657)	0.216	0.486	0.466
TSPAN13 (UniProt O95857)	0.229	0.441	-0.0847
TSPO	-0.334	0.17	0.892
TSPYL1 (UniProt Q9H0U9)	-0.00828	-0.153	0.0344
TSR1 (UniProt Q2NL82)	-0.39	0.00573	0.334
TSR2 (UniProt Q969E8)	0.33	0.0774	0.317

Target	thermal stability z-score (lipoamide; [1])	thermal stability z-score (lipoamide; arsenate co-treatment: none)	thermal stability z-score (potassium arsenate)
TSR3 (UniProt Q9UJK0)	-0.214	-0.723	-1.75
TSSC1 (UniProt Q53HC9)	0.436	-0.204	-0.25
TSSC4 (UniProt Q9Y5U2)	1.17	0.668	-0.46
TST (UniProt Q16762)	0.729	-0.00911	1
TSTA3 (UniProt Q13630)	-0.467	-0.784	-0.387
TSTD2 (UniProt Q5T7W7)	-0.0897	-0.178	-0.0518
TTC1 (UniProt Q99614)	-0.0842	0.337	-0.104
TTC4 (UniProt O95801)	-0.0544	0.0918	-0.14
TTC5 (UniProt Q8N0Z6)	-0.0841	0.0677	-0.0548
TTC9C (UniProt Q8N5M4)	-0.988	-0.401	-0.649
TTC13 (UniProt Q8NBP0)	-0.787	-1.08	0.595
TTC17 (UniProt Q96AE7)	-0.85	-0.317	0.453
TTC19 (UniProt Q6DKK2)	0.927	0.897	-1.29
TTC21B (UniProt Q7Z4L5)	-0.223	-0.505	-0.277
TTC27 (UniProt Q6P3X3)	-0.686	-0.257	0.24
TTC28 (UniProt Q96AY4)	-0.0855	-0.0784	-0.0135
TTC33 (UniProt Q6PID6)	0.242	0.0666	-0.664
TTC37 (UniProt Q6PGP7)	-0.601	-0.234	-0.0411
TTC38 (UniProt Q5R3I4)	1.43	1.43	1.01
TTC39C (UniProt Q8N584)	0.0518	0.22	0.0855
TTF2 (UniProt Q9UNY4)	-1.12	0.461	-0.0154
TTI1 (UniProt O43156)	0.86	1.21	1.78
TTI2 (UniProt Q6NXR4)	-1.12	-0.63	0.0606
